# Measurements from patent US7015236B2, “N-heteroarylnicotinamide derivatives” (Sankyo Agro Company, Limited, priority 2001, dated 2006).
# Tested on: green peach aphid (Myzus persicae)
# Assay: Insecticidal test for green peach aphid (100 ppm), Test Example 1
# Format: in vivo
# Conditions: 120 h
# Method: Insecticidal test for green peach aphid (Myzus persicae) (100 ppm)
# Water (30 ml) was put into a beaker, and a leaf of Komatsuna (Brassica var. rapa) was placed within the beaker such that the stem was immersed in water. On the leaf of Komatsuna, five green peach aphids were released and allowed to fertilize. Two days after the releasing, imagoes were removed and the number of larvae was counted.
# A surfactant Newcol NE-710F (trademark, produced by Nippon Nyukazai Co., Ltd., 2%) was dissolved in aqueous acetone (95% aqueous solution, 98%) to prepare solution 1. Next, a dispersant Gousenol GLO5-S (trademark, produced by Nippon Nyukazai Co., Ltd., 0.2% aqueous solution, 0.2%) was dissolved in water (99.8%) to prepare solution 2.
# To each of the compounds (8 mg) of the present invention, the above solution 1 (0.4 ml), the above solution 2 (0.4 ml) and water (8 ml) were added. Further, the compounds of the present invention were each diluted with water so that the concentration of each compound was 100 ppm {as a spreading agent, Gramin S (trademark, produced by Sankyo Co., Ltd.) was added so as to have a concentration of 0.01%}.
# The above chemical liquid (8 ml) was sprayed on the leaf of Komatsuna by use of a rotary spraying tower. The leaf of Komatsuna was put back in the beaker. Then, the beaker was placed in a thermostatic chamber of 25° C. for 16 hours in the light and for 8 hours in the dark. 5 Days after the spraying, the number of dead insects was counted to calculate the mortality (%).
row,Structure (SMILES),mortality at 100 ppm
1,"O=C(Nc1cc(C=NO)no1)c1cnccc1C(F)(F)F [Example 8, N-(3-Hydroxyiminomethyl-5-isoxazolyl)-4-(trifluoromethyl)nicotinamide]",≥ 95%

# Same assay, conditions: 120 h, 100 ppm spray on Komatsuna leaf, larvae, counted 5 days after spraying, 25° C., read-out: mortality (%)
row,Structure (SMILES),mortality at 100 ppm
1,"CCOCN(C(=O)c1cnccc1C(F)(F)F)c1cc(C)no1 [Example 2, N-Ethoxymethyl-N-(3-methyl-5-isoxazolyl)-4-(trifluoromethyl)nicotinamide]",≥ 95%
2,"Cc1noc(NC(=O)c2cnccc2C(F)(F)F)c1Cl [Example 3, N-(4-Chloro-3-methyl-5-isoxazolyl)-4-(trifluoromethyl)nicotinamide]",≥ 95%
3,"CCc1cc(NC(=O)c2cnccc2C(F)(F)F)on1 [Example 5, N-(3-Ethyl-5-isoxazolyl)-4-(trifluoromethyl)nicotinamide]",≥ 95%
4,"CC(C)c1cc(NC(=O)c2cnccc2C(F)(F)F)on1 [Example 6, N-(3-Isopropyl-5-isoxazolyl)-4-(trifluoromethyl)nicotinamide]",≥ 95%
5,"O=Cc1cc(NC(=O)c2cnccc2C(F)(F)F)on1 [Example 7, N-(3-Formyl-5-isoxazolyl)-4-(trifluoromethyl)nicotinamide]",≥ 95%
6,"N#Cc1cc(NC(=O)c2cnccc2C(F)(F)F)on1 [Example 9, N-(3-Cyano-5-isoxazolyl)-4-(trifluoromethyl)nicotinamide]",≥ 95%
7,"COCc1cc(NC(=O)c2cnccc2C(F)(F)F)on1 [Example 10, N-(3-Methoxymethyl-5-isoxazolyl)-4-(trifluoromethyl)nicotinamide]",≥ 95%
8,"O=C(Nc1oncc1Cl)c1cnccc1C(F)(F)F [Example 11, N-(4-Chloro-5-isoxazolyl)-4-(trifluoromethyl)nicotinamide]",≥ 95%
9,"O=C(Nc1onc(C2CC2)c1Cl)c1cnccc1C(F)(F)F [Example 12, N-(4-Chloro-3-cyclopropyl-5-isoxazolyl)-4-(trifluoromethyl)nicotinamide]",≥ 95%
10,"COCc1noc(NC(=O)c2cnccc2C(F)(F)F)c1Cl [Example 13, N-(4-Chloro-3-methoxymethyl-5-isoxazolyl)-4-(trifluoromethyl)nicotinamide]",≥ 95%
11,"Cc1noc(NC(=O)c2cnccc2C(F)(F)F)c1Br [Example 14, N-(4-Bromo-3-methyl-5-isoxazolyl)-4-(trifluoromethyl)nicotinamide]",≥ 95%
12,"Cc1cc(N(C)C(=O)c2cnccc2C(F)(F)F)on1 [Example 16, N-Methyl-N-(3-methyl-5-isoxazolyl)-4-(trifluoromethyl)nicotinamide]",≥ 95%
13,"Cc1cc(N(CC#N)C(=O)c2cnccc2C(F)(F)F)on1 [Example 19, N-Cyanomethyl-N-(3-methyl-5-isoxazolyl)-4-(trifluoromethyl)nicotinamide]",≥ 95%
14,"CSCN(C(=O)c1cnccc1C(F)(F)F)c1cc(C)no1 [Example 20, N-(3-Methyl-5-isoxazolyl)-N-methylthiomethyl-4-(trifluoromethyl)nicotinamide]",≥ 95%
15,"Cc1noc(NC(=O)c2cnccc2C(F)(F)F)n1 [Example 21, N-(3-Methyl-[1,2,4]oxadiazol-5-yl)-4-(trifluoromethyl)nicotinamide]",≥ 95%
16,"N#Cc1noc(NC(=O)c2cnccc2C(F)(F)F)c1Cl [Example 22, N-(4-Chloro-3-cyano-5-isoxazolyl)-4-(trifluoromethyl)nicotinamide]",≥ 95%
17,"N#Cc1noc(NC(=O)c2cnccc2C(F)(F)F)c1F [Example 23, N-(4-Fluoro-3-cyano-5-isoxazolyl)-4-(trifluoromethyl)nicotinamide]",≥ 95%
18,"O=C(Nc1oncc1Br)c1cnccc1C(F)(F)F [Example 24, N-(4-Bromo-5-isoxazolyl)-4-(trifluoromethyl)nicotinamide]",≥ 95%
19,"CCOC(OCC)c1cc(NC(=O)c2cnccc2C(F)(F)F)on1 [Example 26, N-(3-Diethoxymethyl-5-isoxazolyl)-4-(trifluoromethyl)nicotinamide]",≥ 95%
